Measurements: patent US20230009626A1 (ICHNOS SCIENCES S.A., priority 2018, published 2023)

Target: HPK1 (MAP4K1) (Homo sapiens, UniProt Q92918)
Assay: FRET Assay for HPK1 (MAP4K1): one step binding assay, displacement of labeled tracer
Conditions: for inhibition at 1 µM: 1 μM compound; for inhibition at 1 µM / inhibition at 10 µM: FRET ratio 665/620, percent of control; for inhibition at 10 µM: 10 μM compound; for IC50: dose response curve, nonlinear regression
Procedure, shortened: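 TR-FRET tracer-displacement binding assay. GST-tagged HPK1 (10 nM) and Eu-anti-GST antibody (4 nM) were pre-incubated with compound on ice for 15 min in 50 mM HEPES pH 7.5, 10 mM MgCl2, 1 mM EGTA, 0.01% Brij-35 (3% DMSO final). Kinase Tracer 222 (20 nM) was then added for 1 h at room temperature. IC50 came from nonlinear regression of percent of control; percent inhibition was also given at 1.0 and 10.0 μM.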

Chain of HPK1 (MAP4K1) (Q92918 whole entry): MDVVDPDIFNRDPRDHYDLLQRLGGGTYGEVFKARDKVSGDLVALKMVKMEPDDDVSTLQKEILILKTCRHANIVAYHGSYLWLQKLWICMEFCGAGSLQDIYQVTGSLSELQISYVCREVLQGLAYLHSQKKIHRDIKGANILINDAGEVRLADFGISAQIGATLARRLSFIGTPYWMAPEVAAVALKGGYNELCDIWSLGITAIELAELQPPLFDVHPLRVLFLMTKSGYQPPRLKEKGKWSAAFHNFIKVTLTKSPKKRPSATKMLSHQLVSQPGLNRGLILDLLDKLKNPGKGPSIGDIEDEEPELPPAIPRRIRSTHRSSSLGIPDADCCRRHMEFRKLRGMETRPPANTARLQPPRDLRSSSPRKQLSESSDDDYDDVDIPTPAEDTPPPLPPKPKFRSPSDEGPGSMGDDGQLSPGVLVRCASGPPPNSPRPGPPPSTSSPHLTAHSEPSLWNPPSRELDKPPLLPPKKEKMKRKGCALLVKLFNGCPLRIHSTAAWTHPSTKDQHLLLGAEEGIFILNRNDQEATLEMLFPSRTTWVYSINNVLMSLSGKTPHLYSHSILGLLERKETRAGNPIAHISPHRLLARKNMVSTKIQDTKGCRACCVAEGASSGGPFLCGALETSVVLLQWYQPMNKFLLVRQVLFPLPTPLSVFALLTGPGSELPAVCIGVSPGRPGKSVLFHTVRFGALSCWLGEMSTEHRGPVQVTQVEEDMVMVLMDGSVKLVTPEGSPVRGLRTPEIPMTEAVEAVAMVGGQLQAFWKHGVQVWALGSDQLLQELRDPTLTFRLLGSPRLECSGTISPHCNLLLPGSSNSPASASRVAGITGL

SMILES	inhibition at 1 µM	inhibition at 10 µM	IC50
C/C(Nc1cc(C)n(CC(F)F)n1)=C1/C(=O)Nc2cnc(-c3cnccc3C)cc21 [Example 170, (Z)-3-(1-((1-(2,2-Difluoroethyl)-5-methyl-1H-pyrazol-3-yl)amino)ethylidene)-5-(4-methylpyridin-3-yl)-1H-pyrrolo[2,3-c]pyridin-2(3H)-one]	70.1%	70.3%	< 50 nM
COc1cccc(F)c1-c1cc2c(cn1)NC(=O)/C2=C(/C)Nc1cnn([C@H](C)C#N)c1 [Example 171, (R,Z)-2-(4-((1-(5-(2-Fluoro-6-methoxyphenyl)-2-oxo-1H-pyrrolo[2,3-c]pyridin-3(2H)-ylidene)ethyl)amino)-1H-pyrazol-1-yl)propanenitrile]	63.4%	77%	50 to 100 nM
COc1cccc(F)c1-c1cc2c(cn1)NC(=O)/C2=C(/C)Nc1cnn([C@@H](C)C#N)c1 [Example 172, (S,Z)-2-(4-((1-(5-(2-Fluoro-6-methoxyphenyl)-2-oxo-1H-pyrrolo[2,3-c]pyridin-3(2H)-ylidene)ethyl)amino)-1H-pyrazol-1-yl)propanenitrile]	79.2%	80.5%	< 50 nM
COc1cccc(F)c1-c1cc2c(cn1)NC(=O)/C2=C(/C)Nc1cnn(C[C@H](C)O)c1 [Example 173, (S,Z)-5-(2-Fluoro-6-methoxyphenyl)-3-(1-((1-(2-hydroxypropyl)-1H-pyrazol-4-yl)amino)ethylidene)-1H-pyrrolo[2,3-c]pyridin-2(3H)-one]	66.8%	77.4%	< 50 nM
C/C(Nc1cnn(CC2(O)CC2)c1)=C1/C(=O)Nc2cnc(-c3cnccc3C)cc21 [Example 174, (Z)-3-(1-((1-((1-Hydroxycyclopropyl)methyl)-1H-pyrazol-4-yl)amino)ethylidene)-5-(4-methylpyridin-3-yl)-1H-pyrrolo[2,3-c]pyridin-2(3H)-one]	55.1%	64.8%	< 50 nM
C/C(Nc1nn(C)c2ccccc12)=C1/C(=O)Nc2cnc(-c3cnccc3C)cc21 [Example 175, (Z)-3-(1-((1-Methyl-1H-indazol-3-yl)amino)ethylidene)-5-(4-methylpyridin-3-yl)-1H-pyrrolo[2,3-c]pyridin-2(3H)-one]	72.6%	–	< 50 nM
C/C(Nc1cnn(CC[C@H](C)O)c1)=C1/C(=O)Nc2cnc(-c3cnccc3C)cc21 [Example 176, (S,Z)-3-(1-((1-(3-Hydroxybutyl)-1H-pyrazol-4-yl)amino)ethylidene)-5-(4-methylpyridin-3-yl)-1H-pyrrolo[2,3-c]pyridin-2(3H)-one]	75.4%	62.3%	< 50 nM
C/C(Nc1ccc(OC2CCN(C(=O)C3CC3)CC2)nc1)=C1/C(=O)Nc2cnc(-c3cnccc3C)cc21 [Example 177, (Z)-3-(1-((6-((1-(Cyclopropanecarbonyl)piperidin-4-yl)oxy)pyridin-3-yl)amino)ethylidene)-5-(4-methylpyridin-3-yl)-1H-pyrrolo[2,3-c]pyridin-2(3H)-one]	69.4%	66.6%	< 50 nM
C/C(Nc1ncc(C)s1)=C1/C(=O)Nc2cnc(-c3cnccc3C)cc21 [Example 178, (Z)-5-(4-Methylpyridin-3-yl)-3-(1-((5-methylthiazol-2-yl)amino)ethylidene)-1H-pyrrolo[2,3-c]pyridin-2(3H)-one]	68%	77.8%	< 50 nM
C/C(Nc1cc(C)[nH]n1)=C1/C(=O)Nc2cnc(-c3cnccc3C)cc21 [Example 179, (Z)-3-(1-((5-Methyl-1H-pyrazol-3-yl)amino)ethylidene)-5-(4-methylpyridin-3-yl)-1H-pyrrolo[2,3-c]pyridin-2(3H)-one]	66.9%	77.6%	< 50 nM
CCS(=O)(=O)n1nc(N/C(C)=C2\C(=O)Nc3cnc(-c4cnccc4C)cc32)cc1C [Example 180, (Z)-3-(1-((1-(Ethylsulfonyl)-5-methyl-1H-pyrazol-3-yl)amino)ethylidene)-5-(4-methylpyridin-3-yl)-1H-pyrrolo[2,3-c]pyridin-2(3H)-one]	73%	76.2%	< 50 nM
C/C(Nc1cc(C)n(CC(C)(C)O)n1)=C1/C(=O)Nc2cnc(-c3cnccc3C)cc21 [Example 181, (Z)-3-(1-((1-(2-Hydroxy-2-methylpropyl)-5-methyl-1H-pyrazol-3-yl)amino)ethylidene)-5-(4-methylpyridin-3-yl)-1H-pyrrolo[2,3-c]pyridin-2(3H)-one]	76.8%	80.8%	< 50 nM
CCn1nc(N/C(C)=C2\C(=O)Nc3cnc(-c4cnccc4C)cc32)cc1C [Example 182, (Z)-3-(1-((1-Ethyl-5-methyl-1H-pyrazol-3-yl)amino)ethylidene)-5-(4-methylpyridin-3-yl)-1H-pyrrolo[2,3-c]pyridin-2(3H)-one]	78.8%	73%	< 50 nM
C/C(Nc1cc(C)n(CCC(C)(C)O)n1)=C1/C(=O)Nc2cnc(-c3cnccc3C)cc21 [Example 183, (Z)-3-(1-((1-(3-Hydroxy-3-methylbutyl)-5-methyl-1H-pyrazol-3-yl)amino)ethylidene)-5-(4-methylpyridin-3-yl)-1H-pyrrolo[2,3-c]pyridin-2(3H)-one]	72.5%	79.5%	< 50 nM
C/C(Nc1cc(C)n(C[C@H](C)O)n1)=C1/C(=O)Nc2cnc(-c3cnccc3C)cc21 [Example 184, (S,Z)-3-(1-((1-(2-Hydroxypropyl)-5-methyl-1H-pyrazol-3-yl)amino)ethylidene)-5-(4-methylpyridin-3-yl)-1H-pyrrolo[2,3-c]pyridin-2(3H)-one]	70.3%	75.2%	< 50 nM
C/C(Nc1cc(C)n(C(F)F)n1)=C1/C(=O)Nc2cnc(-c3cnccc3C)cc21 [Example 185, (Z)-3-(1-((1-(Difluoromethyl)-5-methyl-1H-pyrazol-3-yl)amino)ethylidene)-5-(4-methylpyridin-3-yl)-1H-pyrrolo[2,3-c]pyridin-2(3H)-one]	73.2%	73.9%	< 50 nM
C/C(Nc1cc(C)n(CC(C)C)n1)=C1/C(=O)Nc2cnc(-c3cnccc3C)cc21 [Example 186, (Z)-3-(1-((1-Isobutyl-5-methyl-1H-pyrazol-3-yl)amino)ethylidene)-5-(4-methylpyridin-3-yl)-1H-pyrrolo[2,3-c]pyridin-2(3H)-one]	70.9%	72.2%	< 50 nM
C/C(Nc1cnn(C)c1)=C1/C(=O)Nc2cnc(-c3cc(C#N)ccc3C)cc21 [Example 187, (Z)-4-Methyl-3-(3-(1-((1-methyl-1H-pyrazol-4-yl)amino)ethylidene)-2-oxo-2,3-dihydro-1H-pyrrolo[2,3-c]pyridin-5-yl)benzonitrile]	66.4%	19.6%	–
C/C(Nc1cc(C)n(C[C@@H](C)O)n1)=C1/C(=O)Nc2cnc(-c3cnccc3C)cc21 [Example 188, (R,Z)-3-(1-((1-(2-Hydroxypropyl)-5-methyl 1H-pyrazol-3-yl)amino)ethylidene)-5-(4-methylpyridin-3-yl)-1H-pyrrolo[2,3-c]pyridin-2(3H)-one]	71%	76%	< 50 nM
C/C(Nc1cc(C)n(CC2CC2)n1)=C1/C(=O)Nc2cnc(-c3cnccc3C)cc21 [Example 189, (Z)-3-(1-((1-(cyclopropylmethyl)-5-methyl-1H-pyrazol-3-yl)amino)ethylidene)-5-(4-methylpyridin-3-yl)-1H-pyrrolo[2,3-c]pyridin-2(3H)-one]	73.5%	76.9%	< 50 nM
C/C(Nc1cc(C)n(CC[C@@H](C)O)n1)=C1/C(=O)Nc2cnc(-c3cnccc3C)cc21 [Example 190, (R,Z)-3-(1-((1-(3-Hydroxybutyl)-5-methyl-1H-pyrazol-3-yl)amino)ethylidene)-5-(4-methylpyridin-3-yl)-1H-pyrrolo[2,3-c]pyridin-2(3H)-one]	52.4%	68.6%	> 500 nM
C/C(Nc1cc(C)n(C)n1)=C1/C(=O)Nc2cnc(-c3c(C)cccc3F)cc21 [Example 191, (Z)-3-(1-((1,5-dimethyl-1H-pyrazol-3-yl)amino)ethylidene)-5-(2-fluoro-6-methylphenyl)-1H-pyrrolo[2,3-c]pyridin-2(3H)-one]	69.6%	82.2%	< 50 nM
C/C(Nc1cc2n(n1)CCOC2)=C1/C(=O)Nc2cnc(-c3c(C)cccc3F)cc21 [Example 192, (Z)-3-(1-((6,7-Dihydro-4H-pyrazolo[5,1-c][1,4]oxazin-2-yl)amino)ethylidene)-5-(2-fluoro-6-methylphenyl)-1H-pyrrolo[2,3-c]pyridin-2(3H)-one]	62.1%	68.3%	< 50 nM
C/C(Nc1cc2n(n1)CCOC2)=C1/C(=O)Nc2ccc(-c3cnccc3C)cc21 [Example 193, (Z)-3-(1-((6,7-Dihydro-4H-pyrazolo[5,1-c][1,4]oxazin-2-yl)amino)ethylidene)-5-(4-methylpyridin-3-yl)indolin-2-one]	78.2%	74.5%	< 50 nM
C/C(Nc1cc(C)n(C)n1)=C1/C(=O)Nc2ccc(-c3cnccc3C)cc21 [Example 194, (Z)-3-(1-((1,5-Dimethyl-1H-pyrazol-3-yl)amino)ethylidene)-5-(4-methylpyridin-3-yl)indolin-2-one]	68.6%	66.6%	< 50 nM
